{"source": "ChEMBL document CHEMBL5661967", "about": "“Antitumor activity of HKI-272, an orally active, irreversible inhibitor of the HER-2 tyrosine kinase” (Cancer Res, 2004)", "key": {"BT-474 [1]": {"system": "BT-474", "assay": "Antiproliferative activity against human BT-474 cells measured after 6 days by sulforhodamine B assay", "format": "functional, cell-based", "conditions": "BT-474, 144 h"}, "[2]": {"assay": "Toxicity in mouse 3T3 cells transfected with HER-2 oncogene implanted athymic nude mouse at 20 to 80 mg/kg, po administered daily for 10 days", "format": "organism-based, NIH3T3", "conditions": "in vivo, 240 h, dose 20-80 mg/kg, time 10 day"}, "BT-474 [3]": {"system": "BT-474", "assay": "Cell cycle arrest in human BT-474 cells assessed as accumulation of cells at Sub-G1 phase at 2 nM measured after 12 to 16 hrs by propidium iodide staining based flow cytometry (reference value: 8%)", "format": "functional", "conditions": "time 12-16 hrs"}, "[4]": {"biological_target": "Retinoblastoma-associated protein (Homo sapiens) (UniProt P06400)", "sequence (P06400 whole entry)": "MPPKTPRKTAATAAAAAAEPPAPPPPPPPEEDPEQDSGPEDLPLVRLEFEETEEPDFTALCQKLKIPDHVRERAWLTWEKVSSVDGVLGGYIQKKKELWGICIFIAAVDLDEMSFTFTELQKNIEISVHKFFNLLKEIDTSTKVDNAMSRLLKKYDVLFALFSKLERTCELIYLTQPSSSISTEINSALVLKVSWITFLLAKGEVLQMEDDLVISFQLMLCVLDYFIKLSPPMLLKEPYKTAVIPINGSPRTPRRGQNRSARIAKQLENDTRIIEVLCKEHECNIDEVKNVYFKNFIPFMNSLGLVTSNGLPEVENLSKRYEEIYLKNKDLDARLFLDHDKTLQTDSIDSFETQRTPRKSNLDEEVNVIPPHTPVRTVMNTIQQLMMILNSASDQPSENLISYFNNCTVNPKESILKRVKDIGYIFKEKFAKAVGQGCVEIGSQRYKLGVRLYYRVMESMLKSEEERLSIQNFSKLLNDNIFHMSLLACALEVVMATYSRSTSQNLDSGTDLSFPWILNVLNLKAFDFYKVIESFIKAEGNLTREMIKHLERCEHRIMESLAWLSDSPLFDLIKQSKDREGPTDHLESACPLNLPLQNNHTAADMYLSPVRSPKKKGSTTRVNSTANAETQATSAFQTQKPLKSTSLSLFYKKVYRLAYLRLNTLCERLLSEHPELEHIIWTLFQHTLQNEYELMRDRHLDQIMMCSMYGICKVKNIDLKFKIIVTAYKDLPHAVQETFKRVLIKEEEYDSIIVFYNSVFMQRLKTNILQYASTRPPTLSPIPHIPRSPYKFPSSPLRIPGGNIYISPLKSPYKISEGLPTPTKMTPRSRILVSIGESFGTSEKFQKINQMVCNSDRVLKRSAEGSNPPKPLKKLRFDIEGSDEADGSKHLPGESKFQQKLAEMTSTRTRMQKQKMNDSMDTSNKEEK", "assay": "Inhibition of Rb phosphorylation in human BT-474 cells at 1 to 10 nM incubated for 12 to 16 hrs by Western blot analysis", "format": "cell-based", "conditions": "dose 1-10 nM, time 12-16 hrs"}, "[5]": {"biological_target": "Cyclin-dependent kinase 1/cyclin B1 (Homo sapiens, UniProt P06493)", "sequence (P06493 whole entry)": "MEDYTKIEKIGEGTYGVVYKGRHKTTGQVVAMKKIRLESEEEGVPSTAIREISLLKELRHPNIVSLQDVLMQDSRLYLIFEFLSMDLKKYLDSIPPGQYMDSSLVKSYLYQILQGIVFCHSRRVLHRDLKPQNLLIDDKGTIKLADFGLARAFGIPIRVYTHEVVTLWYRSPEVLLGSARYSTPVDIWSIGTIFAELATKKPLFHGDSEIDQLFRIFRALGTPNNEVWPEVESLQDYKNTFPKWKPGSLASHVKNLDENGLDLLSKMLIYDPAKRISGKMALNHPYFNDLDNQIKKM", "sequence (P14635 whole entry, further chain)": "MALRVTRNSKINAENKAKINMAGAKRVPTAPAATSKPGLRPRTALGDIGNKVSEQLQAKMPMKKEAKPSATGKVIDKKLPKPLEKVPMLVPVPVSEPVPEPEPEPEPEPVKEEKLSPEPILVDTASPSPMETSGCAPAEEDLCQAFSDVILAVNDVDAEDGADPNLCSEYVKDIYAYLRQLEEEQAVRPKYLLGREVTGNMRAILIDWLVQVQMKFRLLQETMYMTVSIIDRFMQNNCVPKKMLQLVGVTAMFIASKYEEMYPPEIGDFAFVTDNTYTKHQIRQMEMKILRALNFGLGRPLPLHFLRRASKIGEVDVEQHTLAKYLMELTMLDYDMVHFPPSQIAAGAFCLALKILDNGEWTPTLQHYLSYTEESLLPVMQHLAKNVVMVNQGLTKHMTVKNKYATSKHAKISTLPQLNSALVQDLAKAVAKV", "assay": "Inhibition of recombinant CDK1/cyclin B1 (unknown origin) using protein as substrate", "format": "protein-complex assay"}, "[6]": {"biological_target": "Vascular endothelial growth factor receptor 2 (Homo sapiens, UniProt P35968)", "sequence (P35968 whole entry)": "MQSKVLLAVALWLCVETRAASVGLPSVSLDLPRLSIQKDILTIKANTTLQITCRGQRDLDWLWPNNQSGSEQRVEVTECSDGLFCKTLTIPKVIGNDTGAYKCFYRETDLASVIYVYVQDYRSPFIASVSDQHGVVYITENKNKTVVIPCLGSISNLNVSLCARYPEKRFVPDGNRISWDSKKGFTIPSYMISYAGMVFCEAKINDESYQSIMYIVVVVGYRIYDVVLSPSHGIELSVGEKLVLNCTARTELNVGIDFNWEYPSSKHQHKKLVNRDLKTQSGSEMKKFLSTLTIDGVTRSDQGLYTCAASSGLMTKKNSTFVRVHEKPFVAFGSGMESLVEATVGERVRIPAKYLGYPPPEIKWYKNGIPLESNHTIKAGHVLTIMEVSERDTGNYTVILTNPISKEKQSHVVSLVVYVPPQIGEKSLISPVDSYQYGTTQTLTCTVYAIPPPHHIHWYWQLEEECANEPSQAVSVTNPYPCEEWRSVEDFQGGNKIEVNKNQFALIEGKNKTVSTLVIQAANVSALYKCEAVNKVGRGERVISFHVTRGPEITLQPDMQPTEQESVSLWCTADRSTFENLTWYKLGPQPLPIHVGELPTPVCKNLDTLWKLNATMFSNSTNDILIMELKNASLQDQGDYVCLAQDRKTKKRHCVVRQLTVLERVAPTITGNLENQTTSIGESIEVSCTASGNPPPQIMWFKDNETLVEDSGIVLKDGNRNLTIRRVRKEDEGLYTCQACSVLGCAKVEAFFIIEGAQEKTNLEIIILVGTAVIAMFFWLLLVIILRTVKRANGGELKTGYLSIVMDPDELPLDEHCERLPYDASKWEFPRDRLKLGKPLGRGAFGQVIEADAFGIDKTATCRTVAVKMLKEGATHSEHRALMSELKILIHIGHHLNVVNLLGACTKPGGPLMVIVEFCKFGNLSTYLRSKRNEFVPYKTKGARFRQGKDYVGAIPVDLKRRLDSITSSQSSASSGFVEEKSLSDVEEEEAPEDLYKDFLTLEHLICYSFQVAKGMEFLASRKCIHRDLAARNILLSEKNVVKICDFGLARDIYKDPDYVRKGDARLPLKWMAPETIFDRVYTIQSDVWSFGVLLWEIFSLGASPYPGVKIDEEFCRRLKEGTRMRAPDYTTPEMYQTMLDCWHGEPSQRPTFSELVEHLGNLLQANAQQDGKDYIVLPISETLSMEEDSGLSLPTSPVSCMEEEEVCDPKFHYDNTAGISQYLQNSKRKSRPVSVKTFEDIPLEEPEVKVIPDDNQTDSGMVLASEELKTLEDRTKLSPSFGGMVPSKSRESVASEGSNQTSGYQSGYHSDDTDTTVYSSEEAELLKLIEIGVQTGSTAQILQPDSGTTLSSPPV", "assay": "Inhibition of recombinant KDR (unknown origin) using poly[Glu:Tyr] (4:1) as substrate"}, "[7]": {"assay": "Toxicity in human BT-474 cells xenografted athymic nude mouse at 10 to 40 mg/kg, po administered daily via gavage for 20 days", "format": "organism-based", "conditions": "in vivo, 480 h, dose 10-40 mg/kg, time 20 day"}, "SK-OV-3": {"system": "SK-OV-3", "assay": "Antitumor activity against human SK-OV-3 cells xenografted in athymic nude mouse assessed as tumor growth inhibition at 5 mg/kg, po administered daily for 20 days via gavage and measured on day 21 relative to control", "format": "functional", "conditions": "SK-OV-3, 504 h, time 21 day, read-out: TGI"}, "[8]": {"biological_target": "RAC-alpha serine/threonine-protein kinase (Homo sapiens, UniProt P31749)", "sequence (P31749 whole entry)": "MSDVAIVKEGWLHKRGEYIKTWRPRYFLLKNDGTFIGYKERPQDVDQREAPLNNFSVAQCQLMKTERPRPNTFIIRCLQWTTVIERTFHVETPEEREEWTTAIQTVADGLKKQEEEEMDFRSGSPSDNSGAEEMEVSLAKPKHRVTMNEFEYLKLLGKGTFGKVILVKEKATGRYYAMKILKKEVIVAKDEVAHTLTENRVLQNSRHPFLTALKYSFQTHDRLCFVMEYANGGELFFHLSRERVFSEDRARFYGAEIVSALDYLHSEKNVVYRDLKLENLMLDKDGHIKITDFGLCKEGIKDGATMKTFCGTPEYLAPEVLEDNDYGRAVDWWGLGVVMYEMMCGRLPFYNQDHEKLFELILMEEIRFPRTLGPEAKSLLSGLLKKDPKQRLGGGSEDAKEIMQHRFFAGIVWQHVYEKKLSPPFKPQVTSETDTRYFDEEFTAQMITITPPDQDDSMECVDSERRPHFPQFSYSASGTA", "assay": "Inhibition of recombinant AKT (unknown origin) using peptide as substrate"}, "BT-474 [9]": {"system": "BT-474", "assay": "Cell cycle arrest in human BT-474 cells assessed as accumulation of cells at S phase at 0.2 nM measured after 12 to 16 hrs by BrdUrd uptake assay (reference value: 26%)", "format": "functional", "conditions": "time 12-16 hrs"}, "BT-474 [10]": {"system": "BT-474", "assay": "Cell cycle arrest in human BT-474 cells assessed as increase in accumulation of cells at sub-G1 phase at >2 nM measured after 12 to 16 hrs by propidium iodide staining based flow cytometry", "format": "functional", "conditions": "time 12-16 hrs"}, "BT-474 [11]": {"system": "BT-474", "assay": "Cell cycle arrest in human BT-474 cells assessed as reduction in accumulation of cells at S phase measured after 12 to 16 hrs by BrdUrd uptake assay", "format": "functional, cell-based"}, "BT-474 [12]": {"system": "BT-474", "assay": "Cell cycle arrest in human BT-474 cells assessed as accumulation of cells at S phase at 0.2 nM measured after 12 to 16 hrs by propidium iodide staining based flow cytometry (reference value: 21%)", "format": "functional", "conditions": "time 12-16 hrs"}, "BT-474 [13]": {"system": "BT-474", "assay": "Cell cycle arrest in human BT-474 cells assessed as accumulation of cells at G0-G1 phase at 1 nM measured after 12 to 16 hrs by propidium iodide staining based flow cytometry (reference value: 61%)", "format": "functional", "conditions": "time 12-16 hrs"}, "[14]": {"biological_target": "Epidermal growth factor receptor (Homo sapiens, UniProt P00533)", "sequence (P00533 whole entry)": "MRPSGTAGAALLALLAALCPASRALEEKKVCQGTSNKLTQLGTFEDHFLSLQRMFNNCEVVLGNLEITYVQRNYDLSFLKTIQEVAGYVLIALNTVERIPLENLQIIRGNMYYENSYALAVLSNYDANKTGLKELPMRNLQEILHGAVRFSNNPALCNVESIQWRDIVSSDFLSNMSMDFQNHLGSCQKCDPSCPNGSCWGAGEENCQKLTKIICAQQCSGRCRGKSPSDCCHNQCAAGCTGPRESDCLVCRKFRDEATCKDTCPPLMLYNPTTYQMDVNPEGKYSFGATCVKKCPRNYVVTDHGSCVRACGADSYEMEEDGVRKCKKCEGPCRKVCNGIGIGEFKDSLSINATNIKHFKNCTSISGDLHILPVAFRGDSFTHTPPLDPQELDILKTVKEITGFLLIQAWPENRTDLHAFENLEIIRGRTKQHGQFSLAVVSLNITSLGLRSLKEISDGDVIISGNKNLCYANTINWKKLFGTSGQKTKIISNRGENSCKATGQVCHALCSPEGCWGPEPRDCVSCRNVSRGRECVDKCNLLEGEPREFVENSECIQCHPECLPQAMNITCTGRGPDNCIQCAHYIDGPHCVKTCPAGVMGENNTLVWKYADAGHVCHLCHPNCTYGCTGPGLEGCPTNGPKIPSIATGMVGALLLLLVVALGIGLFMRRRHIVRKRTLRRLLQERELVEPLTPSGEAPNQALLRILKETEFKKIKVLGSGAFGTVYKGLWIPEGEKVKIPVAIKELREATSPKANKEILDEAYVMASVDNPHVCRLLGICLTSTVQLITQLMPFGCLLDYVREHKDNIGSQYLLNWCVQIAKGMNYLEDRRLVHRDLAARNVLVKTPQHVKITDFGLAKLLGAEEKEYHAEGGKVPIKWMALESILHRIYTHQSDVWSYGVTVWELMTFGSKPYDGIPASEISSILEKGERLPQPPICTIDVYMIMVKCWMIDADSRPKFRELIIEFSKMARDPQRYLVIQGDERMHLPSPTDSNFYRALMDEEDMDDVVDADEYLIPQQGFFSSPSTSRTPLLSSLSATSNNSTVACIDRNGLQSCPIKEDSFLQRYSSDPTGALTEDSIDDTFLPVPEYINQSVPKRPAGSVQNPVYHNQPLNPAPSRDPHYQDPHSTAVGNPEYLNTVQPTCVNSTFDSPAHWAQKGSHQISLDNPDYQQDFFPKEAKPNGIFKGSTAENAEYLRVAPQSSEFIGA", "assay": "Inhibition of EGF-induced EGFR phosphorylation in human A-431 cells at 1 uM incubated for 3 hrs followed by compound washout and further incubated for 5 hrs by Western blot analysis relative to control", "format": "cell-based"}, "BT-474 [15]": {"system": "BT-474", "assay": "Cell cycle arrest in human BT-474 cells assessed as accumulation of cells at S phase at 0.4 nM measured after 12 to 16 hrs by BrdUrd uptake assay (reference value: 26%)", "format": "functional", "conditions": "time 12-16 hrs"}}, "note": "Active and inactive are the calls of the source. No cut-off for these calls is given here."}
{"smiles": "COc1cc2ncc(C#N)c(Nc3ccc(OCc4ccccn4)c(Cl)c3)c2cc1NC(=O)/C=C/CN(C)C", "values": [{"measurement": "IC50", "setting": "BT-474 [1]", "value": 2, "unit": "nM"}, {"measurement": "Activity", "setting": "[2]", "value": "Non-Toxic"}, {"measurement": "Activity", "setting": "BT-474 [3]", "value": 11, "unit": "%"}, {"measurement": "inhibition", "setting": "[4]", "value": "Active"}, {"measurement": "IC50", "setting": "[5]", "value": "> 18000", "unit": "nM"}, {"measurement": "IC50", "setting": "[6]", "value": 800, "unit": "nM"}, {"measurement": "Activity", "setting": "[7]", "value": "Non-Toxic"}, {"measurement": "inhibition in vivo at 5 mg/kg", "setting": "SK-OV-3", "value": 31, "unit": "%"}, {"measurement": "IC50", "setting": "[8]", "value": "> 20000", "unit": "nM"}, {"measurement": "Activity", "setting": "BT-474 [9]", "value": 18, "unit": "%"}, {"measurement": "Activity", "setting": "BT-474 [10]", "value": "Active"}, {"measurement": "IC50", "setting": "BT-474 [11]", "value": 2, "unit": "nM"}, {"measurement": "Activity", "setting": "BT-474 [12]", "value": 16, "unit": "%"}, {"measurement": "Activity", "setting": "BT-474 [13]", "value": 69, "unit": "%"}, {"measurement": "inhibition", "setting": "[14]", "value": 105, "unit": "%"}, {"measurement": "Activity", "setting": "BT-474 [15]", "value": 14, "unit": "%"}]}
